Measured values from PMC6934184, “Selective DNA-PKcs inhibition extends the therapeutic index of localized radiotherapy and chemotherapy” (The Journal of Clinical Investigation, 2019).

Biological target: T1, PAK1 (Homo sapiens, UniProt Q13153)
T1 construct: purchased Thermo Fisher Scientific (Life Technologies) SelectScreen
Test: SelectScreen Z'LYTE
Assay type: biochemical
Outline: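 NU5455 was profiled across the SelectScreen Broad panel of kinase activity and binding assays. Z'LYTE reactions such as CSF1R ran at apparent Km ATP, while the Adapta CAMK1 assay used ATP listed as 10. Values are given as percent.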

T1 sequence (Q13153 whole entry): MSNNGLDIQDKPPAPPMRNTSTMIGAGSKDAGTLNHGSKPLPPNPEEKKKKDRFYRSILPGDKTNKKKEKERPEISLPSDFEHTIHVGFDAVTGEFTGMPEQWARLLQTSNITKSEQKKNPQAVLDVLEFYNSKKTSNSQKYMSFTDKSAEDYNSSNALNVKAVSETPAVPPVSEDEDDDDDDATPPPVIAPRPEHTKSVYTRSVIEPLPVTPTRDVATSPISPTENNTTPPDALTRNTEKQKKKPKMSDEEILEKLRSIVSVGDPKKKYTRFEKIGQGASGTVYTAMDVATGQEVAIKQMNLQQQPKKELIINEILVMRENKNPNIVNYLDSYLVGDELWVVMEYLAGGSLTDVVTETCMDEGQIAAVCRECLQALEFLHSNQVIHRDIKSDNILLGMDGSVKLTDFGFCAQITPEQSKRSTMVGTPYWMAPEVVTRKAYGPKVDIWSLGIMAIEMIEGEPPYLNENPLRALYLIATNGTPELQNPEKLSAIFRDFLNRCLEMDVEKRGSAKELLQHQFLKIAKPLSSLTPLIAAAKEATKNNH

How did the inhibition at 1 µM turn out when CN(C(=O)CN1CCOCC1)c1ccc2sc3c(-c4cccc5c(=O)cc(N6CC7CCC(C6)O7)oc45)cccc3c2c1 [NU5455] was run?
Its inhibition at 1 µM is -4.4%.
